Assays:
[1] = target: T1, CDK14/CycY (Homo sapiens, UniProt O94921); assay: CDK family panel, ADP-Glo; assay type: biochemical
T1 construct: ICE Bioscience Inc. (assay service)
Description: (§2) All the kinase activity were performed using an ADP-Glo kinase assay by ICE Bioscience Inc. (Beijing, China).

[2] = target: T2, CDK19/CycC (Homo sapiens, UniProt Q9BWU1); assay: CDK family panel, ADP-Glo; assay type: biochemical
T2 construct: ICE Bioscience Inc. (assay service)
Description: as §2

[3] = target: T3, CDK18/CycY (Homo sapiens, UniProt Q07002); assay: CDK family panel, ADP-Glo; assay type: biochemical
T3 construct: ICE Bioscience Inc. (assay service)
T3 sequence (Q07002 whole entry, species assumed): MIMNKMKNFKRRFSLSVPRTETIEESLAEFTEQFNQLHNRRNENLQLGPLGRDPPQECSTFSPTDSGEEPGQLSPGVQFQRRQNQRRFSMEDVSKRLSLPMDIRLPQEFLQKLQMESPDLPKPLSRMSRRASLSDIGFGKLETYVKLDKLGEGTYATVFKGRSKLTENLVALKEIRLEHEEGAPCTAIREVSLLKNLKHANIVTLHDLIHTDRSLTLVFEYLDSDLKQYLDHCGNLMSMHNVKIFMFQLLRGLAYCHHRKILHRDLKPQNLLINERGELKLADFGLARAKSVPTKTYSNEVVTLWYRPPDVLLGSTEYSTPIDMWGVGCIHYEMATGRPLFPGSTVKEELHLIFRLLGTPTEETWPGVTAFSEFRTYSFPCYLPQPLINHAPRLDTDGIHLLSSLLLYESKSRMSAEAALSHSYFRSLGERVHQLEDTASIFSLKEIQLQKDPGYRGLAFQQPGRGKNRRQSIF
T3 sequence (Q8ND76 whole entry partner, species assumed): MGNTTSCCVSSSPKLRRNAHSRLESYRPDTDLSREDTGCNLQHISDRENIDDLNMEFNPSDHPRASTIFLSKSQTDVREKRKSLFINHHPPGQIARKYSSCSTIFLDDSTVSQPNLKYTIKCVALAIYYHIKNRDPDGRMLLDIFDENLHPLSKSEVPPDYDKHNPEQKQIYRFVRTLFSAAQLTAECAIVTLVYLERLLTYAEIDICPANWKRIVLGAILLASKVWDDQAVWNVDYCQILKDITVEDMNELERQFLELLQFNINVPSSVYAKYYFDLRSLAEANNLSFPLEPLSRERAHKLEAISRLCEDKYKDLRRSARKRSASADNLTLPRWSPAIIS
Description: (§3) All the kinase activity were performed using an ADP-Glo kinase assay by ICE Bioscience Inc. (Beijing, China). Kinome selectivity profiles (KINOMEscan profiling) and Kd detection were performed by Eurofins DiscoveryX Corporation (San Diego, CA, USA).

[4] = target: T4, CDK1/CycE1 (Homo sapiens, UniProt P06493); assay: CDK family panel, ADP-Glo; assay type: biochemical
T4 construct: ICE Bioscience Inc. (assay service)
T4 sequence (P06493 whole entry, species assumed): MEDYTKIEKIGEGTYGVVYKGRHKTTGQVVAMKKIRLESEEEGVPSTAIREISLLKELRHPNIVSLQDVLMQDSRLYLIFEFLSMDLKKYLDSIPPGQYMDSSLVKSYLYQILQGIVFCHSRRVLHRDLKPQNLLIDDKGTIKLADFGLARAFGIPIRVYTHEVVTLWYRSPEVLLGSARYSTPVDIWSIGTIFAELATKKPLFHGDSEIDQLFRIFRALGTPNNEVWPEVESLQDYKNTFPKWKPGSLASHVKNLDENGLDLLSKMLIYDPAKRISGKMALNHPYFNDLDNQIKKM
T4 sequence (P24864 whole entry partner, species assumed): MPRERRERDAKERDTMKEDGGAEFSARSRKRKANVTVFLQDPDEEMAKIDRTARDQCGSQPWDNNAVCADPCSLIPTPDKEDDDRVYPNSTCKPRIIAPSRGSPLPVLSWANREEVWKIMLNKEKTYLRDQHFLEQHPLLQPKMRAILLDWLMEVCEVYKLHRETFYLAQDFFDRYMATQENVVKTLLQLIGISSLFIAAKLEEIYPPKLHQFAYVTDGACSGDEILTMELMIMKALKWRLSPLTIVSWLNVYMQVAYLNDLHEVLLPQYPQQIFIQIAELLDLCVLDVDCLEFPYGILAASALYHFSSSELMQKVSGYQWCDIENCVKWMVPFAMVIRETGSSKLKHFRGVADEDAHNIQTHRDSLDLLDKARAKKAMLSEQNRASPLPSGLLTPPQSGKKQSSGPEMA
Description: as §2

[5] = target: T5, CDK1/CycA2 (Homo sapiens, UniProt P06493); assay: CDK family panel, ADP-Glo; assay type: biochemical
T5 construct: ICE Bioscience Inc. (assay service)
T5 sequence (P06493 whole entry, species assumed): as the sequence (P06493 whole entry, species assumed) above
T5 sequence (P20248 whole entry partner, species assumed): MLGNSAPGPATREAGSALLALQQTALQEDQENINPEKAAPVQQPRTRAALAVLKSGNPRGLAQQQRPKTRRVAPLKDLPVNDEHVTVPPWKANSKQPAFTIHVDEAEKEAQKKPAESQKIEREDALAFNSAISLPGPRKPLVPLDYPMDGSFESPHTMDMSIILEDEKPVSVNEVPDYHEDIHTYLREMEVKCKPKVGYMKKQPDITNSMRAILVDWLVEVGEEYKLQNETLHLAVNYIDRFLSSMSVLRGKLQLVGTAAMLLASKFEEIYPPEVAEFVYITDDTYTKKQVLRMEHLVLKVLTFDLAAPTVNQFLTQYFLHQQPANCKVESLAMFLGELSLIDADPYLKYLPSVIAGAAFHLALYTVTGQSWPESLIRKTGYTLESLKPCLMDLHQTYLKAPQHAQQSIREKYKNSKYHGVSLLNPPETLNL
Description: as §2

[6] = target: T6, CDK4/CycD1 (Homo sapiens, UniProt P11802); assay: CDK family panel, ADP-Glo; assay type: biochemical
T6 construct: ICE Bioscience Inc. (assay service)
T6 sequence (P11802 whole entry, species assumed): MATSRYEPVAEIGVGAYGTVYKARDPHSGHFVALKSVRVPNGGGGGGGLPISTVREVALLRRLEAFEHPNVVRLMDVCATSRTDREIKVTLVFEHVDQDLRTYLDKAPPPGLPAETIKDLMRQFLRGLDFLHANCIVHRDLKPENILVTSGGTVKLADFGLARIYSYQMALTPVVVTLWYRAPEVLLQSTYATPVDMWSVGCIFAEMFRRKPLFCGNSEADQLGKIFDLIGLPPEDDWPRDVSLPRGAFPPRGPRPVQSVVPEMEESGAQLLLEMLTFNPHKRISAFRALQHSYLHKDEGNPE
T6 sequence (P24385 whole entry partner, species assumed): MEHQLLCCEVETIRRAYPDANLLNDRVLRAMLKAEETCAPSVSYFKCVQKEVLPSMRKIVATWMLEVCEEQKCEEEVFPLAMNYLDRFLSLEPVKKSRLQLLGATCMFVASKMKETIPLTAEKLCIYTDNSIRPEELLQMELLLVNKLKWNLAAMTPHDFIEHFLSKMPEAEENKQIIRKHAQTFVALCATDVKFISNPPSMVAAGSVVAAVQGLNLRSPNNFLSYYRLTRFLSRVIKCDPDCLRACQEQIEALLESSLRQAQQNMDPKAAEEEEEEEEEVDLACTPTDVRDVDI
Description: as §3

[7] = test system: CHLA10; assay: Cell viability panel; assay type: cell-based; conditions: Homo sapiens, 120 h; Ewing's sarcoma cells, 5 days of treatment
Description: (§1) Cells were seeded in 96-well plates and incubated at 37 °C and 5% CO2. After overnight incubation, serial dilutions of tested compounds were added to the plate. The assay was tested with Cell Titer-Glo (Promega) after 5 days. The luminescence signal was detected by the Infinite M1000 Pro plate reader (Tecan), and the IC50 values were calculated by GraphPad Prism 10.

[8] = test system: SK-BR-3; assay: Cell viability panel; assay type: cell-based; conditions: Homo sapiens, SK-BR-3, 120 h; breast cancer cells, 5 days of treatment
Description: as §1

[9] = test system: CB-AGPN; assay: Cell viability panel; assay type: cell-based; conditions: Homo sapiens, 120 h; Ewing's sarcoma cells, 5 days of treatment
Description: as §1

[10] = test system: DU145; assay: Cell viability panel; assay type: cell-based; conditions: Homo sapiens, DU-145, 120 h; prostate cancer cells, 5 days of treatment
Description: as §1

[11] = test system: MFM223; assay: Cell viability panel; assay type: cell-based; conditions: Homo sapiens, MFM-223, 120 h; breast cancer cells, 5 days of treatment
Description: as §1

[12] = test system: MDA-MD-468; assay: Cell viability panel; assay type: cell-based; conditions: Homo sapiens, 120 h; breast cancer cells, 5 days of treatment
Description: as §1

[13] = target: T7, CDK3/CycE1 (Homo sapiens, UniProt Q00526); assay: CDK family panel, ADP-Glo; assay type: biochemical
T7 construct: ICE Bioscience Inc. (assay service)
T7 sequence (Q00526 whole entry, species assumed): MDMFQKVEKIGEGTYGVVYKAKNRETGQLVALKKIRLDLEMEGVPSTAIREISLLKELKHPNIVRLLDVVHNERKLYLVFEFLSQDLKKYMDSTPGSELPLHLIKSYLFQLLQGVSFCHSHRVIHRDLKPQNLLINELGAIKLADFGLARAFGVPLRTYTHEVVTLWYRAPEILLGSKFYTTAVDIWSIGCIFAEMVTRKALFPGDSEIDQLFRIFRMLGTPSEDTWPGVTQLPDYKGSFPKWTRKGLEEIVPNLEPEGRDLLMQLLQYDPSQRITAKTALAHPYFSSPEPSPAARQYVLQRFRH
T7 sequence (P24864 whole entry partner, species assumed): as the sequence (P24864 whole entry partner, species assumed) above
Description: as §3

[14] = target: T8, CDK3/CycC (Homo sapiens, UniProt Q00526); assay: CDK family panel, ADP-Glo; assay type: biochemical
T8 construct: ICE Bioscience Inc. (assay service)
T8 sequence (Q00526 whole entry, species assumed): as the sequence (Q00526 whole entry, species assumed) above
T8 sequence (P24863 whole entry partner, species assumed): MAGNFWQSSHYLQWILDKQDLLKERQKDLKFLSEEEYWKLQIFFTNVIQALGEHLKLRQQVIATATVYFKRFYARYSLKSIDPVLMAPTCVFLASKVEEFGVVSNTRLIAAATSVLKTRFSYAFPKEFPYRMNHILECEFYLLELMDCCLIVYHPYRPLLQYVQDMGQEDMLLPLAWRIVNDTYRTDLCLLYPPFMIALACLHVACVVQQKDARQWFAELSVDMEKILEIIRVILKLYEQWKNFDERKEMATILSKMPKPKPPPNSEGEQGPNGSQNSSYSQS
Description: as §2

T2 sequence (Q9BWU1 whole entry, species assumed): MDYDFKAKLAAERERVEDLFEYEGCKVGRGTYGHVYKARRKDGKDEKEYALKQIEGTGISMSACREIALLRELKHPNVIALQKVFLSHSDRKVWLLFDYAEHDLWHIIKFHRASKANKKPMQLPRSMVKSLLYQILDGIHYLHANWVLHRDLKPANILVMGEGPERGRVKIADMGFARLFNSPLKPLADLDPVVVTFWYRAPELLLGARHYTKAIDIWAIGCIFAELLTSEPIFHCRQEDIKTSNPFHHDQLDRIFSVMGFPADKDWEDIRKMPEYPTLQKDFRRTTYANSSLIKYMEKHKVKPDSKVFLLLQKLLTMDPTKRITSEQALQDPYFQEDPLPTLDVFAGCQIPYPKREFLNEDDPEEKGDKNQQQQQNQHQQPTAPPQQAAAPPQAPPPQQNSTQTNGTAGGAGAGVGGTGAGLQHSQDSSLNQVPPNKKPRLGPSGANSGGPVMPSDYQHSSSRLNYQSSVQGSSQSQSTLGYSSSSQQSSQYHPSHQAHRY
T2 sequence (P24863 whole entry partner, species assumed): as the sequence (P24863 whole entry partner, species assumed) above
T1 sequence (O94921 whole entry, species assumed): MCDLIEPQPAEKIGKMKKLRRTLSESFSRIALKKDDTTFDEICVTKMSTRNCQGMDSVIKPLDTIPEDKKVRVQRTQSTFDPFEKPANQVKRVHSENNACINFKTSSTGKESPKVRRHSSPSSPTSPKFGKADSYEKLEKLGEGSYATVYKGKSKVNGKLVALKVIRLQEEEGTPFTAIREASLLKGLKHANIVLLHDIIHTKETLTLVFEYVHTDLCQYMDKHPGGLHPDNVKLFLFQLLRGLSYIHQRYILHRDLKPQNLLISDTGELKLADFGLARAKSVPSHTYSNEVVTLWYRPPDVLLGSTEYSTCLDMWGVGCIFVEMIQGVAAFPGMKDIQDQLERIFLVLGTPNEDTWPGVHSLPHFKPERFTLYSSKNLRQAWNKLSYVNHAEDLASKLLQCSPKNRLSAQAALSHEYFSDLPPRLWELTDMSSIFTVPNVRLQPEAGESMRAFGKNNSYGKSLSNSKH
T1 sequence (Q8ND76 whole entry partner, species assumed): as the sequence (Q8ND76 whole entry partner, species assumed) above

IC50 [1]: > 10000 nM
IC50 [2]: > 10000 nM
IC50 [3]: > 10000 nM
IC50 [4]: > 10000 nM
IC50 [5]: > 10000 nM
IC50 [6]: 3390 nM
IC50 [8]: < 0.04 µM
IC50 [10]: < 0.04 µM
IC50 [13]: > 10000 nM
IC50 [14]: > 10000 nM
SMILES: C=CC(=O)Nc1cc(N(C(=O)NCc2ccccc2)[C@H]2CC[C@H](Nc3ccc(C#N)cn3)CC2)ccc1N1CCC(N(C)C)CC1 [YJZ5118, N-(5-(3-benzyl-1-((1r,4r)-4-((5-cyanopyridin-2-yl)amino)cyclohexyl)ureido)-2-(4-(dimethylamino)piperidin-1-yl)phenyl)acrylamide]
IC50 [7]: < 0.04 µM
IC50 [9]: < 0.04 µM
IC50 [11]: < 0.04 µM
IC50 [12]: < 0.04 µM
